Experiments:
RAW 264.7 cells = assay: Cell viability (EZ-Cytox) in RAW 264.7 cells; format: cell-based, mouse; conditions: 24 h incubation
Experimental: (§1) The RAW 264.7, a mouse macrophage cell line (American Type Culture Collection, Manassas, VA, USA), was grown in DMEM medium supplemented with 10% fetal bovine serum and 1% penicillin–streptomycin at 37 °C with 5% CO2.
To determine cell viability against the four steroidal alkaloids, peimine, peimisine, peiminine, and sipeimine, RAW 264.7 cells were seeded at a density of 5 × 10^4 cells/well in 96-well plates and incubated overnight. Cells were then incubated with various concentrations of the four compounds (0, 0.78, 1.56, 3.13, 6.25, 12.5, 25, 50, and 100 μg/mL) for 24 h, respectively. Subsequently, 10 μL of EZ-Cytox (DoGenBio Co., Seoul, Republic of Korea) was added and incubated for 1 h. Absorbance was measured at 450 nm using an enzyme-linked immunosorbent assay reader (Bio-Rad Laboratories, Hercules, CA, USA). Cell viability was calculated by comparing the values measured with those of untreated cells.

[1] = cited from earlier work
[2] = Pharmacokinetics of steroidal alkaloids after single oral FTB dose in normal and DNBS-induced colitis rats; format: in vivo, Sprague–Dawley rats; conditions: for AUC_%Extrap_obs / AUClast / AUMClast / Cmax / MRT last / Tmax / half-life: oral FTB 1 g/kg single dose, plasma, mean ± SD, n = 5; for Cmax / MRT last / Tmax / half-life: male, Sprague-Dawley, rat, po, 1 g/kg; for half-life under colitis compared with normal conditions / systemic exposure under colitis condition compared with normal state: oral FTB 1 g/kg, DNBS vs normal rats
Experimental: Ten-week-old male Sprague–Dawley rats were obtained from Samtaco (Osan, Republic of Korea), quarantined, and acclimatized for one week before the experiments. All animal experiments were approved by the Animal Care and Use Committee of Chungnam National University (202304A-CNU-067). The rats were fasted for 14–16 h the day before administration of DNBS (Sigma-Aldrich). After the rats were anesthetized with isoflurane, the colitis group received a single dose of 30 mg/250 μL in 50% ethanol through a medical grade polyurethane catheter, injected rectally into the descending colon 8 cm from the anal sphincter. DNBS was administered slowly over 1 min, and the rats were kept supine in the Trendelenburg position for 3 min after injection to prevent leakage. The normal group received only 50% ethanol, following the same procedure as described above. The pharmacokinetic study was performed four days after DNBS administration, and both the normal and DNBS groups were orally administered a single dose of 1 g/kg FTB. Blood samples were obtained from the tail vein at 0, 0.5, 0.75, 1, 2, 4, 6, 8, 10, 12, 24, and 30 h, and the rats were sacrificed after the last blood collection. The plasma samples obtained were centrifuged at 16,000× g for 15 min and stored at −80 °C until analysis.
Plasma concentrations were measured using UPLC-MS/MS (Agilent Technologies Inc.) in the same manner as described above. 100 μL of plasma was vortexed with 20 μL ammonia water and 800 μL ethyl acetate for 15 min and centrifuged at 16,000× g for 15 min. After evaporating 800 μL of the supernatant under nitrogen at 40 °C, 50 μL of 50% methanol was added. The mixture was then vortexed and centrifuged, and 5 μL of the final extract was used for analysis.
For the plasma concentration analysis, the limit of detection and limit of quantification (LOQ) were defined based on the concentration of the analyte, which generated signal-to-noise (S/N) ratios of 3 and 10, respectively, following the “Guideline on Bioanalytical Method Validation” for the Ministry of Food and Drug Safety in Korea (MFDS 2023). Among the active ingredients of FTB, peimine, peimisine, peiminine, and sipeimine were detected in concentrations above the LOQ —the multiple reaction monitoring conditions of each of them are summarized in Supplementary Table S2. The calibration curves were linear over the concentration range of 0 to 2000 ng/mL, with a correlation coefficient of R^2 > 0.99. Precision and accuracy were evaluated by calculating the intra- and inter-day recoveries of quality control samples at three concentrations: 10, 50, and 100 ng/mL. The intra- and inter-day recoveries were within the range of 84.6 to 115.6%, and the coefficient of variation was less than 10%. Detailed validation results for the analysis method of peimine, peimisine, peiminine, and sipeimine are summarized in Supplementary Table S3.
The pharmacokinetic parameters were calculated based on a non-compartmental model using Monolix 2023R1 (Lixoft SAS, Simulations Plus Inc., Lancaster, CA, USA). The dosage of each component was calculated based on the content of the component within the FTB, and applied in the pharmacokinetics analysis. From the data analyzed, the Cmax of FTB and the time to Cmax (Tmax) were determined. Elimination half-life was obtained by linear regression of log-tranformed concentration data in the late phase. The AUC was estimated using the linear log-trapezoidal and linear up-log-down rules for the time of final concentration in each group.

[3] = tested on: LPS-stimulated RAW 264.7 cells; assay: Pro-inflammatory cytokine mRNA expression (qPCR) in LPS-stimulated RAW 264.7 cells; format: cell-based, mouse; conditions: 25 μg/mL; 24 h pretreatment then LPS 4 h; vs LPS alone
Experimental: as §1
To evaluate the anti-inflammatory effects of the active ingredients in FTB, the cells were seeded in 12-well plates at 3 × 10^5 cells/mL and treated with 25 μg/mL of the four steroidal alkaloids, peimine, peimisine, peiminine and sipeimine, respectively, a concentration determined to be non-toxic according to the cell viability assay. LPS (Sigma-Aldrich, St. Louis, MO, USA) from Escherichia coli O111:B4 was used as a control at a concentration of 10 μg/mL. Cells were pretreated with the compounds for 24 h, followed by treatment with LPS for 4 h. After cells were harvested, total RNA was extracted using a total RNA extraction kit (Samjung Bioscience, Daejeon, Republic of Korea), and the extracted RNA was reverse transcribed into cDNA. The synthesized cDNA was subjected to quantitative polymerase chain reaction to measure the mRNA expression levels of cytokines using the following forward and reverse primers: IL-1β, forward, 5′-[…]-3′; reverse, 5′-[…]-3′; IL-6, forward, 5′-[…]-3′; reverse, 5′-[…]-3′; TNF-α, forward, 5′-[…]-3′; reverse, 5′-[…]-3′; GAPDH, forward, 5′-[…]-3′; reverse, 5′-[…]-3′.

Row | SMILES | concentrations at which no toxicity was shown (cell viability) (RAW 264.7 cells) | pKa [1] | partition coefficient (logP) [1] | AUC_%Extrap_obs ([2]; DNBS-treated (colitis) rats) | AUClast ([2]; DNBS-treated (colitis) rats) | AUMClast ([2]; DNBS-treated (colitis) rats) | Cmax ([2]; DNBS-treated (colitis) rats) | MRT last ([2]; DNBS-treated (colitis) rats) | Tmax ([2]; DNBS-treated (colitis) rats) | half-life ([2]; DNBS-treated (colitis) rats) | Cmax ([2]; normal rats) | MRT last ([2]; normal rats) | Tmax ([2]; normal rats) | half-life ([2]; normal rats) | AUC_%Extrap_obs ([2]; normal rats) | AUClast ([2]; normal rats) | AUMClast ([2]; normal rats) | half-life under colitis compared with normal conditions [2] | systemic exposure under colitis condition compared with normal state [2] | further results
1 | C[C@H]1CC[C@@H]2N(C1)C[C@H]1[C@@H]3C[C@H]4[C@@H](CC(=O)[C@H]5C[C@@H](O)CC[C@@]54C)[C@@H]3CC[C@H]1[C@]2(C)O [sipeimine] | 0 to 25000 ng/mL | approximately 14 | 4.4 | 11.0 ± 8.3% | 764.0 ± 285.5 h∗ng/mL | 3588.3 ± 1486.0 h∗h∗ng/mL | 162 ± 97 ng/mL | 4.7 ± 0.6 h | 2.4 ± 1.2 h | 3.2 ± 1.6 h | 64.7 ± 13.4 ng/mL | 5.4 ± 1.7 h | 1.3 ± 0.5 h | 6.9 ± 5.6 h | 10.4 ± 8.6% | 463.5 ± 232.8 h∗ng/mL | 2675.8 ± 2026.3 h∗h∗ng/mL | shorter half-life | no observable difference | –
2 | CC1=C2C[C@H]3[C@@H](CC(=O)C4C[C@@H](O)CC[C@@]43C)[C@@H]2CC[C@]12OC1C[C@H](C)CN[C@H]1[C@H]2C (some centres unmarked) [peimisine] | 0 to 25000 ng/mL | approximately 14 | 2.7 | 8.9 ± 11.6% | 16,895.4 ± 5782.1 h∗ng/mL | 126,755.7 ± 54,141.2 h∗h∗ng/mL | 2330 ± 363 ng/mL | 7.3 ± 1.3 h | 1.5 ± 0.8 h | 7.7 ± 4.9 h | 656 ± 672 ng/mL | 5 ± 2 h | 0.9 ± 0.2 h | 3.9 ± 1.7 h | 5.3 ± 4.0% | 3959.3 ± 4738.6 h∗ng/mL | 23,522.8 ± 33,482.7 h∗h∗ng/mL | – | approximately five times higher | IL-1β mRNA expression lowered [3]: about 6 fold; TNF-α mRNA expression lowered [3]: ~3 fold
3 | C[C@H]1CC[C@@H]2N(C1)C[C@H]1[C@@H]3C[C@H]4[C@@H](C[C@H](O)[C@H]5C[C@@H](O)CC[C@@]54C)[C@@H]3CC[C@@H]1[C@]2(C)O [peimine] | 0 to 25000 ng/mL | – | 4.1 | 6.6 ± 6.6% | 1076.9 ± 444.1 h∗ng/mL | 2819.7 ± 1408.9 h∗h∗ng/mL | 351 ± 150 ng/mL | 2.7 ± 0.6 h | 1 ± 0.7 h | 1.9 ± 0.7 h | 356 ± 253 ng/mL | 3.7 ± 0.8 h | 0.7 ± 0.2 h | 4 ± 2.5 h | 6.7 ± 5.5% | 1311.8 ± 762.6 h∗ng/mL | 4511.4 ± 2253.8 h∗h∗ng/mL | shorter half-life | no observable difference | –
4 | C[C@H]1CC[C@@H]2N(C1)C[C@H]1[C@@H]3C[C@H]4[C@@H](CC(=O)[C@H]5C[C@@H](O)CC[C@@]54C)[C@@H]3CC[C@@H]1[C@]2(C)O [peiminine] | 0 to 25000 ng/mL | approximately 14 | 3.9 | 3.3 ± 2.9% | 888.8 ± 286.0 h∗ng/mL | 3149.7 ± 1242.0 h∗h∗ng/mL | 209 ± 51.1 ng/mL | 3.6 ± 0.6 h | 1.3 ± 0.8 h | 1.8 ± 0.9 h | 228 ± 110 ng/mL | 4.7 ± 1.1 h | 1 ± 0.2 h | 4.5 ± 2 h | 14.5 ± 15.7% | 1172.4 ± 392.3 h∗ng/mL | 5302.0 ± 1844.3 h∗h∗ng/mL | shorter half-life | no observable difference | IL-6 mRNA expression lowered [3]: approximately 5 fold

Source: article PMC11357484, “Investigating Changes in Pharmacokinetics of Steroidal Alkaloids from a Hydroethanolic Fritillariae thunbergii Bulbus Extract in 2,4-Dinitrobenzene Sulfonic Acid-Induced Colitis Rats” (Pharmaceuticals, 2024)
